Assay results as given in patent US12630856B2, “Identification of host-targeting modulators of bacterial uptake and assay for quantifying intracellular bacteria” (priority 2020, dated 2026).
Structures can show the parent of a compound that is named as a salt.

Key:
Format in all cases: cell-based
[1] = system: E. coli; experiment: Axenic growth of bacteria (CFU-less assay / optical density); settings: varying amounts of compound, FIG. 19
Excerpt: In some embodiments, methods for measuring bacterial growth rate in axenic culture are described. The methods comprise: • (a) expressing in the bacteria a fluorescent protein; • (b) growing the bacteria in axenic culture; and • (c) measuring fluorescence in the culture at regular intervals.
The CFU-less assay can reliably detect compound cytotoxicity in axenic medium. The compound(s) of interest were combined with either the host cell or the pathogen in an axenic medium to analyze toxicity of the compound(s) on the host cell or pathogen. The graphs below show an example of how the compounds from the screen affect axenic growth of E. coli. The effects of the compounds on axenic growth of E. coli were minimal.

[2] = system: Escherichia coli uptake by RAW 264.7 macrophages; experiment: CFU-less assay (CLA) screen of 2,400 approved drugs for modulators of bacterial uptake
[3] = system: bacterial uptake; experiment: CFU plating to confirm uptake enhancement
Description: CFU plating was performed to confirm the enhancement.

[4] = system: Salmonella species; experiment: Attenuation of infection by Salmonella
[5] = system: Pseudomonas species; experiment: Attenuation of infection by Pseudomonas
[6] = system: Klebsiella species; experiment: Attenuation of infection by Klebsiella
[7] = system: Acinetobacter species; experiment: Attenuation of infection by Acinetobacter
[8] = system: intracellular and extracellular bacterial strains in RAW 264.7 macrophages; experiment: Uptake and intracellular survival of bacterial strains in RAW 264.7 macrophages (FIG. 21)
Excerpt: This confirms the results of the screen and expands potential uses. Quinacrine was previously known as an antiparasitic, an anti-inflammatory agent, intrapleural sclerosing agent, a pneumothorax prophylaxis, Creutzfeldt-Jakob disease (CJI)) therapy, and as an anticancer agent (FIG. 21).

Polymyxin B sulfate
gram-negative bacterial growth in axenic culture [1]: inhibition of gram-negative bacterial growth

CO[C@H]1C[C@H](O[C@H]2[C@H](C)O[C@@H](O[C@@H]3/C(C)=C/C[C@@H]4C[C@@H](C[C@]5(C=C[C@H](C)[C@@H](C6CCCCC6)O5)O4)OC(=O)[C@@H]4C=C(C)[C@@H](O)[C@H]5OC/C(=C\C=C\[C@@H]3C)[C@]54O)C[C@@H]2OC)O[C@@H](C)[C@@H]1O [Doramectin]
bacterial uptake in the presence of the compound (FIG. 2) [2]: increase in bacterial uptake | confirmation of uptake enhancement by CFU plating [3]: enhancement

CCN(CC)CCCC(C)Nc1c2ccc(Cl)cc2nc2ccc(OC)cc12 (stereo not shown) [Quinacrine hydrochloride]
intracellular load of bacteria ([2]; screen of 2,400 compounds): decreases the intracellular load of bacteria | infection by Salmonella species [4]: attenuated infection | infection by Pseudomonas species [5]: attenuated infection | infection by Klebsiella species [6]: attenuated infection | infection by Acinetobacter species [7]: attenuated infection | intracellular survival of both intracellular and extracellular bacterial strains [8]: inhibitory effect | uptake of both intracellular and extracellular bacterial strains (dT) ([8]; FIG. 21): inhibitory effect (increased dT)
